# Experimental data from patent US6902881B2, “Compounds and methods for regulating cell differentiation” (priority 2000, dated 2005).
# Where “and” joins values, the source holds several entries; their conditions need not be identical. Identical values can stand only once.
# How the values were obtained:
# [1] = test system: B-lymphoblast (LB) cells; assay: Proliferation of B-lymphoblast cells; assay type: cell-based, mouse
# [2] = molecular target: T1, aryl hydrocarbon receptor (AhR) (Homo sapiens, UniProt P35869); details: μM range / concentrations used here (Phelan 1998); cited from earlier work
# T1 sequence (P35869 11-848): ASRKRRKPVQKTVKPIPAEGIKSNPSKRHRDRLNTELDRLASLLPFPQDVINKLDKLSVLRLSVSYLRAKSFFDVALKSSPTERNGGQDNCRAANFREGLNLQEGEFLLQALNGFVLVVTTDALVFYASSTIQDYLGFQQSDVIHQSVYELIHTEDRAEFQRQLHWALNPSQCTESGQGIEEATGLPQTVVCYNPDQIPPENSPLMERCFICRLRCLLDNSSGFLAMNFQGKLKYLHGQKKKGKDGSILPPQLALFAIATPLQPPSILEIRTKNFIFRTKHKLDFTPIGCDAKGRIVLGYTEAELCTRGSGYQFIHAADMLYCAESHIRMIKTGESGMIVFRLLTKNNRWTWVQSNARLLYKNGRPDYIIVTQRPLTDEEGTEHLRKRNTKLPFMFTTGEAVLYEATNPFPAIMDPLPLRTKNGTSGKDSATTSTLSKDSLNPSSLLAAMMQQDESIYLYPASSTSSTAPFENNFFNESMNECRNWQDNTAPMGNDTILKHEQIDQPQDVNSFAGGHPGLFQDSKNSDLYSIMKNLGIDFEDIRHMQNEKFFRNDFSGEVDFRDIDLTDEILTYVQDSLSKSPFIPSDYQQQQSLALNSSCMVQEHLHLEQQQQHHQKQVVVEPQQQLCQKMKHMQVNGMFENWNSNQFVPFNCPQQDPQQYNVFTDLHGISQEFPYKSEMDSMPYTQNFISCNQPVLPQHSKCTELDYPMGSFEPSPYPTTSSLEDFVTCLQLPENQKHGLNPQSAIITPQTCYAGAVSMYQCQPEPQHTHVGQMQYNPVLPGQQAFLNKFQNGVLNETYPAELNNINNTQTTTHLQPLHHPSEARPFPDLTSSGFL
# [3] = test system: HT29 colon cancer cells; assay: Cellular proliferation and viability of HT29 colon cancer cells; assay type: cell-based, human
# Method: Cell Culture Conditions. Human HT 29 colon cancer cells were purchased from the American Type Culture Collection. Cells were maintained in Dulbecco's Modified Eagle's Medium (DME) supplemented with 5% heat-inactivated fetal bovine serum, 2 mM glutamine, and antibiotics (DME/5%). All cell lines were incubated in a humidified 5% CO2/air environment. They were maintained at 37° C. in 5% CO2 covered in aluminum foil to prevent exposure to the light. A total of 1×10^6 cells were incubated per flask and allowed to attach overnight. Media was changed every third day. Cell counts were performed on a Coulter Counter following detachment of cells by standard trypsinization procedures. […] The period of exposure was followed by incubation in the absence of biliverdine. Cell numbers were monitored until proliferation resumed. The production of CEA and alkaline phosphatase was measured as described below.
# The HT29 colon cancer cells were incubated with different concentrations of biliverdine and their response studied to identify the concentration ranges required to elicit a biological and/or a toxicological response (Table III).
# [4] = test system: thyroid cancer (Th) cells; assay: Proliferation of thyroid carcinoma cells; assay type: cell-based, human
# [5] = test system: CEA content of HT 29 colon cancer cells; assay: CEA production by HT 29 cells (ELISA/IMx); assay type: cell-based, human
# Method: Expression of differentiation markers. Carcinoembryogenic antigen in cell supernatants collected each three days was assayed by standard ELISA determinations using an IMX assay for quantitative measurement of the antigen. Cellular triacyl glycerol content was measured spectrophotometrically by enzymatic hydrolysis and analysis of the amount of glycerol released using a standard assay, Triglyceride (INT) 10 (Sigma Diagnostics). Cellular alkaline phosphatase activity was determined by measuring the fluorescence change induced by the hydrolysis of 4-methylumbelliferylphosphate. The fluorescence is detected at 450 nm with an excitation of 365 nm, using a Jobin Ivon-Spex Fluoro Max-2 fluorimeter. The alkaline phosphatase activity detected was expressed in units of μmol/mg protein/min.
# The effects of biliverdine on cell proliferation and production of two differentiation markers, CEA and alkaline phosphatase activity, were analyzed, CEA was assayed by standard ELISA determinations while alkaline phosphatase activity was determined by measuring the fluorescence change induced by the hydrolysis of phosphate from 4-methylumbelliferylphosphate as follows. To measure CEA production, cell supernatants were collected at the first cycle of change of media (third day) and on day 12. […] This was diluted 1:1 and assayed for CEA using an Imx assay for quantitive measurement of the antigen. […]
structure (smiles),measurement,setting,value
"C=CC1=C(C)/C(=C/C2=NC(=C\c3[nH]c(/C=C4\NC(=O)C(C)=C4C=C)c(C)c3CCC(=O)O)/C(CCC(=O)O)=C2C)NC1=O [Biliverdin, biliverdin IXα]",time until proliferation ceases,[1],within one day
same,time until cell division resumes at nearly the control rate,[1]; still exposed,3 to 4 days
same,activation of the aryl hydrocarbon receptor,[2],binds and is activated
same,amount that does not affect cellular survival or proliferation,[3]; HT29,lower than 10^−7 M
same,concentration that causes apoptosis,[3]; HT29,≥ 1000 nM
same,concentration with no effect on survival or proliferation,[3]; HT29,below 0.1 μM
same,Effect on cellular proliferation and viability,"[3]; HT29, 0.01 μM",None
same,Effect on cellular proliferation and viability,"[3]; HT29, 0.1 μM",Proliferative Arrest
same,Effect on cellular proliferation and viability,"[3]; HT29, 0.30 μM",Proliferative Arrest
same,Effect on cellular proliferation and viability,"[3]; HT29, 0.40 μM",Proliferative Arrest
same,Effect on cellular proliferation and viability,"[3]; HT29, 1.00 μM",Apoptosis
same,effect on proliferation,"[3]; HT29, 5 μM, associated decrease of cell numbers in first three days",arrests proliferation
same,time until proliferative arrest,"[3]; HT29, 0.1 to 0.4 μM",≤ 72 h
same,doubling time during exposure,"[3]; HT29, 4×10^−7 M, next 35 days after arrest",103 h
same,time of exposure until proliferation is arrested,"[3]; HT29, FIG. 9",≤ 1 days
same,"proliferation rate after resumption, fold less than control","[3]; HT29, after end of exposure",2-3 fold
same,reduction of three-day cell number increase compared to controls,"[3]; HT29, treated and released cells",five-fold reduction
same,increase of cell number in a three-day period,"[3]; HT29, treated and released cells, control about 15 times",3.4 times
same,"proliferation rate after resumption, relative to control","[3]; HT29, treatment discontinued day 30, resumption twelve days later",43%
same,doubling time after removal of biliverdin,"[3]; HT29, twelve days after removal, control 18 hrs",41 h
same,division slower than control,[4],4.7 times
same,time until proliferation ceases,[4],six days and 6 days
same,recovery of proliferative rate,[4]; 12-day observation period,did not recover its proliferative rate at all
same,CEA secreted into the medium,"[5]; HT 29, by days 9-12 of exposure, constitutive slightly below 3",over 80 ng/ml/10^6 cells
same,overproduction of the differentiation marker CEA,"[5]; HT 29, quiescent proliferative period days 3-40",> 25 fold
